Measured values taken from patent US20230203059A1, “MACROCYCLIC JAK INHIBITOR AND USES THEREOF” (Biopolar Hongye (Guangdong) Pharmaceutical Co. Ltd., priority 2020, published 2023).

How the values were obtained:
Assay type in all cases: biochemical
JAK1 = JAK1 (Homo sapiens, UniProt P23458); assay: JAK kinase activity, homogeneous time-resolved fluorescence (JAK1 reaction system); conditions: ATP 2 μM, JAK1 protein 0.2 ng/μL; read-out: JAK 1 activity
How it was run: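 HTRF assay: JAK1 (0.2 ng/μL) with 2 μM ATP and substrate in 50 mM Hepes pH 7.0, 5 mM MgCl2, 1 mM DTT, 1 h. Phospho-substrate antibody/XL-615 detection with EDTA; 665/615 nm ratio, excitation 320 nm. IC50 from Hill-type fit against no-enzyme and no-compound controls.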

TYK2 = TYK2 (Homo sapiens, UniProt P29597); assay: JAK kinase activity, homogeneous time-resolved fluorescence (TYK2 reaction system); conditions: ATP 2 μM, TYK2 protein 0.2 ng/μL; read-out: TYK 2 activity
Chain of TYK2 (P29597 whole entry): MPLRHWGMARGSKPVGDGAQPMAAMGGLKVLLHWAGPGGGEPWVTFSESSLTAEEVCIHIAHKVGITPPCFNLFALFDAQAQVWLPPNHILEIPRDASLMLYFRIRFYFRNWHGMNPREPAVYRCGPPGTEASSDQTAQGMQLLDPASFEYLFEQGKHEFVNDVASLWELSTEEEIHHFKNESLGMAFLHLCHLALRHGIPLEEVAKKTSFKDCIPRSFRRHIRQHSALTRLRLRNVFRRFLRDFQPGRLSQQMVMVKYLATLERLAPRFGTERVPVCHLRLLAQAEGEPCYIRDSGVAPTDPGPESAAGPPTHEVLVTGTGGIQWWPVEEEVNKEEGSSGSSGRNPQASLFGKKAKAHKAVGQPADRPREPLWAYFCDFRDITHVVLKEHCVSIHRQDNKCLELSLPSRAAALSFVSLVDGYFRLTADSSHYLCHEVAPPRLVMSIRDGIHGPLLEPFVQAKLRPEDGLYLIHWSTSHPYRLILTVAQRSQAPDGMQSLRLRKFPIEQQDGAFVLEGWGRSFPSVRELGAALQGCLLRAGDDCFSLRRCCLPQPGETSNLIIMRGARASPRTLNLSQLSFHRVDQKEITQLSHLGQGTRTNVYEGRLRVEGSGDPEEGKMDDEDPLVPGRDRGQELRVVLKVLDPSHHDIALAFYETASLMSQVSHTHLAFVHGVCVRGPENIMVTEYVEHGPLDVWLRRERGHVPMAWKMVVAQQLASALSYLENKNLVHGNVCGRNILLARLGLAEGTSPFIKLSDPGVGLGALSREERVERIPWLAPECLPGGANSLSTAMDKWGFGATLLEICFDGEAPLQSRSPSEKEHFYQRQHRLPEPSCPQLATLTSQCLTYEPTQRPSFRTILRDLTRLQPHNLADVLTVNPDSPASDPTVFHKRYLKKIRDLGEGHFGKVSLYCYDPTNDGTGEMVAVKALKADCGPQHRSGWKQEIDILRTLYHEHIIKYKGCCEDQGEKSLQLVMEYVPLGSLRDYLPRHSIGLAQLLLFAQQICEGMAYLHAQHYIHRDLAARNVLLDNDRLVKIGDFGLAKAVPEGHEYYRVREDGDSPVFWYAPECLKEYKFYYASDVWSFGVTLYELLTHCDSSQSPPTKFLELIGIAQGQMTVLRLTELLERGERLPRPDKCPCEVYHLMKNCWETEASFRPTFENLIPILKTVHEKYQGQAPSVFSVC
How it was run: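 Activity read as the 665 nm/615 nm ratio after adding EDTA-containing detection mix with anti-phospho-substrate antibody and XL-615. Beforehand, 0.2 ng/μL TYK2, 2 μM ATP, substrate and compound reacted 1 h in pH 7.0 Hepes buffer with MgCl2 and DTT. IC50 fitted with Hill-slope equation.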

JAK3 = biological target: T1, JAK3 (Homo sapiens, UniProt P52333); assay: JAK kinase activity, homogeneous time-resolved fluorescence (JAK3 reaction system); conditions: ATP 2 μM, JAK3 protein 0.04 ng/μL; read-out: JAK 3 activity
T1 sequence (P52333 1-1124): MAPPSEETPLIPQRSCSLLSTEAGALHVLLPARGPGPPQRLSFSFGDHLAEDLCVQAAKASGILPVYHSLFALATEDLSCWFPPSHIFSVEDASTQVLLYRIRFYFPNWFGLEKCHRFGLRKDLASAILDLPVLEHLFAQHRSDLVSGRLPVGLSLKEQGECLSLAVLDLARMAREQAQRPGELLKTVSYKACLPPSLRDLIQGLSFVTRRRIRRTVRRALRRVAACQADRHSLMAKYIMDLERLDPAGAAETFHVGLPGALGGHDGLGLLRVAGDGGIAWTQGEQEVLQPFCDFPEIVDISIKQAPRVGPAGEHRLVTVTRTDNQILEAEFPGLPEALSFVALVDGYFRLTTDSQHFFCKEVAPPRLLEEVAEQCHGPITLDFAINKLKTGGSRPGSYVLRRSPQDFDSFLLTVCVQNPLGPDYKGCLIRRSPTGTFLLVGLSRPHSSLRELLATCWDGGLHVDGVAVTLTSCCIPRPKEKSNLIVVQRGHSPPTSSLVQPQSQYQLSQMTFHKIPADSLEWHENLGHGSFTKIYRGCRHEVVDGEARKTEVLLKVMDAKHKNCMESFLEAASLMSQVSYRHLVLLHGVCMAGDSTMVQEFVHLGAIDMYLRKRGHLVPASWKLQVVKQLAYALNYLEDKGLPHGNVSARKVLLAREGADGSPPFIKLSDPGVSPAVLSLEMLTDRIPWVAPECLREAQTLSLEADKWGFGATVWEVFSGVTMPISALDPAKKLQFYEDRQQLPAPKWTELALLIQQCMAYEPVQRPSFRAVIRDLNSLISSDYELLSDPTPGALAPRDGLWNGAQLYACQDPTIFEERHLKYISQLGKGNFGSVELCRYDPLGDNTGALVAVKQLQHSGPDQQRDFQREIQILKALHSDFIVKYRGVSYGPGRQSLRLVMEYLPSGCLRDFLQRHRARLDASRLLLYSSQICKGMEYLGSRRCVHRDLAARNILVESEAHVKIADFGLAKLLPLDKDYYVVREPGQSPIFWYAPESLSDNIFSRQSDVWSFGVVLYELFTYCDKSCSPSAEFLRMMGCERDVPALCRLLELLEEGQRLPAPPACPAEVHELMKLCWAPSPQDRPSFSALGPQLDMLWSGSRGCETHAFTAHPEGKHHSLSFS

JAK2 = JAK2 (Homo sapiens, UniProt O60674); assay: JAK kinase activity, homogeneous time-resolved fluorescence (JAK2 reaction system); conditions: ATP 2 μM, JAK2 protein 0.01 ng/μL
Chain of JAK2 (O60674 whole entry): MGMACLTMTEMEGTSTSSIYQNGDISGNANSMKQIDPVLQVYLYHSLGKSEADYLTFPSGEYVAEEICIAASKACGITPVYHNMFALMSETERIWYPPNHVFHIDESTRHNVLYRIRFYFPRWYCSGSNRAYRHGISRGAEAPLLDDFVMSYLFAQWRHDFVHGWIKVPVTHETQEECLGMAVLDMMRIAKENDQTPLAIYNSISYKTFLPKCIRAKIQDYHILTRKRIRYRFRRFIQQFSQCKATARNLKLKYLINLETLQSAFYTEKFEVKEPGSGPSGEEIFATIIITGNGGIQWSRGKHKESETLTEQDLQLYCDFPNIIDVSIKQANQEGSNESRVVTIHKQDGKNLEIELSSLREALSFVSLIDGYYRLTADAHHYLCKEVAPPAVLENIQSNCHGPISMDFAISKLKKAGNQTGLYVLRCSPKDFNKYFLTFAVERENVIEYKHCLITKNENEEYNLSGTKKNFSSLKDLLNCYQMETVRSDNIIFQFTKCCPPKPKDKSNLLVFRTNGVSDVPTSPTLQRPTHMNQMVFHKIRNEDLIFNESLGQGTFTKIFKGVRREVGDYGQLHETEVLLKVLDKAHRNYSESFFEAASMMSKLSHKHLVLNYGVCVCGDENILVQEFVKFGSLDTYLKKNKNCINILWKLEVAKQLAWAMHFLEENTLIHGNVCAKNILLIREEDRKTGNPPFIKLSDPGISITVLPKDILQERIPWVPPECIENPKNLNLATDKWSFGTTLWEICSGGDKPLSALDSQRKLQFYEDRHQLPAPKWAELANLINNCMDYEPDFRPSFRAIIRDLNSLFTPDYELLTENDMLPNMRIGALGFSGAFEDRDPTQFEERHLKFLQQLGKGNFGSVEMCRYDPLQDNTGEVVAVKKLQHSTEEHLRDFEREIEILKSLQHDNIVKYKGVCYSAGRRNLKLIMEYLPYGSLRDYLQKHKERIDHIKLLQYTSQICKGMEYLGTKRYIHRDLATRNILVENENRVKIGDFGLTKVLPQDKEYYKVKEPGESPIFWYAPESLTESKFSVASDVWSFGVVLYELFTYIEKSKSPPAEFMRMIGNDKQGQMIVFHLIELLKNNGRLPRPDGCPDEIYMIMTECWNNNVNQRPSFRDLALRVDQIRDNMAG
How it was run: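 IC50 derived by Hill-equation fit of the 665/615 nm time-resolved fluorescence ratio after EDTA-containing detection mix with anti-phosphosubstrate antibody. Preceding 1 h reaction contained 2 μM ATP, 0.01 ng/μL JAK2, substrate, 50 mM Hepes pH 7.0, 5 mM MgCl2, 1 mM DTT.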

Chain of JAK1 (P23458 whole entry): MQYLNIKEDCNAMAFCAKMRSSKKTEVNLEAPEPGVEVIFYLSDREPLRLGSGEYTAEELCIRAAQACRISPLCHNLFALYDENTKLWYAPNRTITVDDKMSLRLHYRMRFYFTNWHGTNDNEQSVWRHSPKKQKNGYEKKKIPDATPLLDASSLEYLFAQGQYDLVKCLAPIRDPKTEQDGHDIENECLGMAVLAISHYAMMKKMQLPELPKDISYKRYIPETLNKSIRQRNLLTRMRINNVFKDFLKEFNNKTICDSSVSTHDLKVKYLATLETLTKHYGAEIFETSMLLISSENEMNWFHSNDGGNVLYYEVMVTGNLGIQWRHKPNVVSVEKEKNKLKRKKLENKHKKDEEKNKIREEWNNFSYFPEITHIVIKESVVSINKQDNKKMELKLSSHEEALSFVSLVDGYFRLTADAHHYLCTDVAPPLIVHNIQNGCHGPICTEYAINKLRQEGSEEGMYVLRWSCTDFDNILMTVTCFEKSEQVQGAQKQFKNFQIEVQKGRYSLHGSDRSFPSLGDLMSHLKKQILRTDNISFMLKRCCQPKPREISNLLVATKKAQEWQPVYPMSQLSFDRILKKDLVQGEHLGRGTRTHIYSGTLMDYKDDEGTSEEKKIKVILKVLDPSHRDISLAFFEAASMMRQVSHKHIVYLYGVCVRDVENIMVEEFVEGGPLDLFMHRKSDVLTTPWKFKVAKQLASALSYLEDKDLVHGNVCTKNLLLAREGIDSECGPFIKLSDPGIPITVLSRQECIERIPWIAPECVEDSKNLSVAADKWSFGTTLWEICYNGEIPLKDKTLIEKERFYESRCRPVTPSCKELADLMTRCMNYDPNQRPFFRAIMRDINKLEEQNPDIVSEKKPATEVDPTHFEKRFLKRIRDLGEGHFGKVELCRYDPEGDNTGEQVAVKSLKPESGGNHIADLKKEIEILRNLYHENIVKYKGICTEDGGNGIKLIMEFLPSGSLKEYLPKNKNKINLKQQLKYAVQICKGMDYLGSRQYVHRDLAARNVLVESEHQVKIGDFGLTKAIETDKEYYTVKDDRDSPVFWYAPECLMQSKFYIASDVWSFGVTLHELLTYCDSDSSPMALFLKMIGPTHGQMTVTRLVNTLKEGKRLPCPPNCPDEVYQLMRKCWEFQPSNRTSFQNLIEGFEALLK

IC50 (JAK1)	IC50 (TYK2)	IC50 (JAK3)	IC50 (JAK2)	SMILES
1000 to 10000 nM	> 10000 nM	11 to 100 nM	1000 to 10000 nM	Nc1cc2ccc1-c1ccnc(n1)Nc1ccc(Oc3ccccc3F)c(c1)COCCCCNC2=O [Example 119, 1^1-amino-4^4-(2-fluorophenoxy)-6-oxa-3,11-diaza-2(4,2)-pyrimidina-1(1,4),4(1,3)-dibenzenacyclo-dodecaphan-12-one]
1000 to 10000 nM	1000 to 10000 nM	< 10 nM	101 to 1000 nM	COc1cccc(F)c1COc1ccc2cc1COCC[C@@H](C)CNC(=O)c1ccc(c(N)c1)-c1ccnc(n1)N2 [Example 186, (R)-1^2-amino-4^4-((2-fluoro-6-meth-oxybenzyl)oxy)-9-methyl-6-oxa-3,11-diaza-2(4,2)-pyrimidina-1(1,4),4(1,3)-dibenzenacyclododecaphan-12-one]
1000 to 10000 nM	> 10000 nM	< 10 nM	101 to 1000 nM	Nc1cc2ccc1-c1ccnc(n1)Nc1ccc(OCc3cccc4c3OCC4)c(c1)COCCCCNC2=O [Example 148, 1^2-amino-4^4-((2,3-dihydrobenzofu-ran-7-yl)methoxy)-6-oxa-3,11-dia-za-2(4,2)-pyrimidina-1(1,4),4(1,3)-dibenzenacyclododecaphan-12-one]
1000 to 10000 nM	> 10000 nM	101 to 1000 nM	1000 to 10000 nM	O=C1Nc2ccc(cc2)OCc2cc(ccc2OC2CCCOC2)Nc2nccc(n2)-c2ccc1cc2[N+](=O)[O-] (stereo not shown) [Example 203, 1^2-nitro-4^4-((tetrahydro-2H-pyran-3-yl)oxy)-6-oxa-3,8-diaza-2(4,2)-pyri-midina-1,7(1,4),4(1,3)-tribenzenacyclo-nonaphane-9-one]
1000 to 10000 nM	> 10000 nM	101 to 1000 nM	1000 to 10000 nM	CC1CCNC(=O)c2ccc(c([N+](=O)[O-])c2)-c2ccnc(n2)Nc2ccc(OCC3CCOC3)c(c2)COC1 (stereo not shown) [Example 135, 8-methyl-1^2-nitro-4^4-((tetrahydro-furan-3-yl)methoxy)-6-oxa-3,11-diaza-2(4,2)-pyrimidina-1(1,4),4(1,3)-dibenzenacyclododecaphan-12-one]
1000 to 10000 nM	> 10000 nM	11 to 100 nM	101 to 1000 nM	Nc1cc2ccc1-c1ccnc(n1)Nc1ccc(OC3CC3)c(c1)COc1ccc(cc1)NC2=O [Example 200, 1^2-amino-4^4-cyclopropoxy-6-oxa-3,8-diaza-2(4,2)-pyrimidina-1,7(1,4),4(1,3)-tribenzenacyclononanphane-9-one]
1000 to 10000 nM	> 10000 nM	101 to 1000 nM	1000 to 10000 nM	O=C1NCCCCOCc2cc(ccc2OCC2CCC(F)(F)C2)Nc2nccc(n2)-c2ccc1cc2[N+](=O)[O-] (stereo not shown) [Example 120, 4^4-((3,3-difluorocyclopentyl)meth-oxy)-1^2-nitro-6-oxa-3,11-diaza-2(4,2)-pyrimidina-1(1,4),4(1,3)-di-benzenacyclododecaphan-12-one]
1000 to 10000 nM	1000 to 10000 nM	11 to 100 nM	101 to 1000 nM	Nc1cc2ccc1-c1ccnc(n1)Nc1ccc(OC3CCCOC3)c(c1)COc1ccc(cc1)NC2=O (stereo not shown) [Example 197, 1^2-amino-4^4-((tetrahydro-2H-pyran-3-yl)oxy)-6-oxa-3-8-diaza-2 (4,2)-pyrimidina-1,7(1,4), 4 (1,3)-tribenzenacyclononaphane-9-one]

The next lines start with the compound.

SMILES	IC50 (JAK1)	IC50 (TYK2)	IC50 (JAK3)	IC50 (JAK2)
Nc1cc2ccc1-c1ccnc(n1)Nc1ccc(OCc3ccccc3)c(c1)COCCCCNC2=O [Example 118, 1^2-amino-4^4-(benzyloxy)-6-oxa-3,11-diaza-2(4,2)-pyrimidina-1(1,4),4(1,3)-dibenzenacyclododecaphan-12-one]	1000 to 10000 nM	> 10000 nM	11 to 100 nM	1000 to 10000 nM
CN(C)c1cc2ccc1-c1ccnc(n1)Nc1ccc(OC3CC3)c(c1)COCCCCNC2=O [Example 83, 4^4-cyclopropxy-1^2-dimethylamino-6-oxa-3,11-diaza-2(4,2)-pyrimidina-1(1,4),4(1,3)-dibenzenacyclododeca-phan-12-one]	1000 to 10000 nM	> 10000 nM	> 10000 nM	1000 to 10000 nM
O=C1NCCCCOCc2cc(ccc2N2CCCCC2)Nc2nccc(n2)-c2ccc1cc2F [Example 29, 1^2-fluoro-4^4-(piperidin-1-)-6-oxa-3,11-diaza-2(4,2)-pyrimidina-1(1,4),4(1,3)-dibenzenacyclododecaphan-12-one]	101 to 1000 nM	1000 to 10000 nM	11 to 100 nM	11 to 100 nM
Nc1cc2ccc1-c1ccnc(n1)Nc1cc(F)c(F)c(c1)COCCCCNC2=O [Example 94, 1^2-amino-4^4,4^5-difluoro-6-oxa-3,11-diaza-2(4,2)-pyrimidina-1(1,4),4(1,3)-dibenzenacyclododecaphan-12-one]	1000 to 10000 nM	> 10000 nM	11 to 100 nM	1000 to 10000 nM
Nc1cc2ccc1-c1ccnc(n1)Nc1cccc(c1)COCCCCNC2=O [Example 54, 1^2-amino-6-oxa-3,11-diaza-2(4,2)-py-rimidina-1(1,4),4(1,3)-dibenzena-cyclododecaphan-12-one]	101 to 1000 nM	1000 to 10000 nM	11 to 100 nM	101 to 1000 nM
O=C1NCCCCOCc2cc(ccc2N2CCOCC2)Nc2nccc(n2)-c2ccc1cc2F [Example 4, 1^2-fluoro-4^4-morpholin-6-oxa-3,11-diaza-2(4,2)-pyrimidina-1(1,4),4(1,3)-dibenzenacyclododecaphan-12-one]	1000 to 10000 nM	101 to 1000 nM	11 to 100 nM	101 to 1000 nM
COc1cc2ccc1-c1ccnc(n1)Nc1ccc(N3CCOCC3)c(c1)COCCCCNC2=O [Example 21, 1^2-methoxy-4^4-morpholin-6-oxa-3,11-diaza-2(4,2)-pyrimidina-1(1,4),4(1,3)-dibenzenacyclododecaphan-12-one]	1000 to 10000 nM	1000 to 10000 nM	101 to 1000 nM	101 to 1000 nM
Nc1cc2ccc1-c1ccnc(n1)Nc1ccc(OCC3CCCC3)c(c1)COCCCCNC2=O [Example 105, 1^2-amino-4^4-(cyclopentylmethoxy)-6-oxa-3,11-diaza-2(4,2)-pyrimidi-na-1(1,4),4(1,3)-dibenzenacyclodo-decaphan-12-one]	1000 to 10000 nM	> 10000 nM	< 10 nM	101 to 1000 nM
O=C1NCCCCOCc2cc(ccc2OCC2CC2)Nc2nccc(n2)-c2ccc1cc2[N+](=O)[O-] [Example 111, 4^4-(cyclopropylmethoxy)-1^2-nitro-6-oxa-3,11-diaza-2(4,2)-pyrimidina-1(1,4),4(1,3)-dibenzenacyclo-dodecaphan-12-one]	1000 to 10000 nM	> 10000 nM	101 to 1000 nM	1000 to 10000 nM
Nc1cc2ccc1-c1ccnc(n1)Nc1ccc(OC3COC3)c(c1)COCCCCNC2=O [Example 75, 1^2-amino-4^4-(oxetan-3-oxy)-6-oxa-3,11-diaza-2(4,2)-pyrimidina-1(1,4),4(1,3)-dibenzenacyclododecaphan-12-one]	1000 to 10000 nM	1000 to 10000 nM	11 to 100 nM	101 to 1000 nM
O=C1NCCCCOCc2cc(ccc2OCC(F)(F)F)Nc2nccc(n2)-c2ccc1cc2[N+](=O)[O-] [Example 108, 1^2-nitro-4^4-(2,2,2-trifluoroethoxy)-6-oxa-3,11-diaza-2(4,2)-pyrimidina-1(1,4),4(1,3)-dibenzenacyclo-dodecaphan-12-one]	1000 to 10000 nM	> 10000 nM	101 to 1000 nM	1000 to 10000 nM
